According to the supplement of paper PMC10307832:

Legend:
Assay in all cases: relative viability (nuclei count vs DMSO), 5 days (fraction); higher = more cells survive
[1] = compound: C1CCC(CC1)N(CCNCCC2=C3C(=C(C=C2)O)NC(=O)CO3)C(=O)CCNCCC4=CC(=C(C=C4)Cl)Cl [AZ505] + Cc1nc(Nc2ncc(C(=O)Nc3c(C)cccc3Cl)s2)cc(N2CCN(CCO)CC2)n1 [Dasatinib] (partner 0.075 µM)
In short: (§1)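 Lung cancer cell lines, seeded in 1536-well plates, were treated the following day by pin tool with a single drug or with five library-drug doses (not always all listed) in √10 steps on top of a fixed anchor-drug dose. Cells were fixed and nuclei stained in one step after 5 days, and nuclei were counted. Relative viability is the nuclei count for treated wells divided by that for vehicle wells, reported as medians of duplicate plates.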

[2] = compound: Cn1c(=O)n(-c2ccc(C(C)(C)C#N)cc2)c2c3cc(-c4cnc5ccccc5c4)ccc3ncc21 [Dactolisib] + CC(C)C[C@H](NC(=O)[C@H](Cc1ccccc1)NC(=O)c1cnccn1)B(O)O [Bortezomib] (partner 0.002 µM)
In short: as §1

[3] = compound: Cn1c(=O)n(-c2ccc(C(C)(C)C#N)cc2)c2c3cc(-c4cnc5ccccc5c4)ccc3ncc21 [Dactolisib] + Cc1cc(Nc2cc(N3CCN(C)CC3)nc(Sc3ccc(NC(=O)C4CC4)cc3)n2)n[nH]1 [Tozasertib] (partner 0.1 µM)
In short: as §1

[4] = compound: Cn1c(=O)n(-c2ccc(C(C)(C)C#N)cc2)c2c3cc(-c4cnc5ccccc5c4)ccc3ncc21 [Dactolisib] + Nc1nc2[nH]cc(CCc3ccc(C(=O)N[C@@H](CCC(=O)O)C(=O)O)cc3)c2c(=O)[nH]1 [Pemetrexed] (partner 0.2 µM)
In short: as §1

| Cell Line | relative viability ([1]; first compound 0.08 µM) | relative viability ([1]; first compound 0.253 µM) | relative viability ([1]; first compound 0.8 µM) | relative viability ([1]; first compound 2.53 µM) | relative viability ([1]; first compound 8 µM) | relative viability ([2]; first compound 0.002 µM) | relative viability ([2]; first compound 0.006325 µM) | relative viability ([2]; first compound 0.02 µM) | relative viability ([2]; first compound 0.06325 µM) | relative viability ([2]; first compound 0.2 µM) | relative viability ([3]; first compound 0.002 µM) | relative viability ([3]; first compound 0.006325 µM) | relative viability ([3]; first compound 0.02 µM) | relative viability ([3]; first compound 0.06325 µM) | relative viability ([3]; first compound 0.2 µM) | relative viability ([4]; first compound 0.002 µM) | relative viability ([4]; first compound 0.006325 µM) | relative viability ([4]; first compound 0.02 µM) | relative viability ([4]; first compound 0.06325 µM) | relative viability ([4]; first compound 0.2 µM) |
| --- | --- | --- | --- | --- | --- | --- | --- | --- | --- | --- | --- | --- | --- | --- | --- | --- | --- | --- | --- | --- |
| NCI-H1437 | 0.346 | 0.334 | 0.58 | 0.378 | 0.376 | 0.567 | 0.564 | 0.518 | 0.377 | 0.278 | 0.467 | 0.425 | 0.415 | 0.518 | 0.382 | 0.309 | 0.347 | 0.312 | 0.27 | 0.227 |
| NCI-H1650 | 0.298 | 0.281 | 0.37 | 0.321 | 0.295 | 0.224 | 0.213 | 0.212 | 0.208 | 0.228 | 0.397 | 0.476 | 0.425 | 0.367 | 0.302 | 0.342 | 0.418 | 0.385 | 0.383 | 0.299 |
| NCI-H1651 | 0.47 | 0.416 | 0.386 | 0.441 | 0.49 | 1.05 | 0.952 | 0.884 | 0.886 | 0.67 | 0.693 | 0.677 | 0.564 | 0.475 | 0.286 | 0.53 | 0.654 | 0.533 | 0.329 | 0.299 |
| NCI-H1666 | 0.745 | 0.795 | 0.783 | 0.828 | 0.69 | 0.859 | 0.756 | 0.722 | 0.392 | 0.404 | 0.742 | 0.614 | 0.667 | 0.526 | 0.614 | 0.849 | 0.892 | 0.858 | 0.736 | 0.802 |
| NCI-H1734 | 0.456 | 0.467 | 0.482 | 0.478 | 0.417 | 0.92 | 0.741 | 0.781 | 0.346 | 0.243 | 0.212 | 0.259 | 0.279 | 0.23 | 0.198 | 0.335 | 0.436 | 0.415 | 0.36 | 0.317 |
| NCI-H1755 | 0.393 | 0.51 | 0.43 | 0.442 | 0.474 | 1.01 | 0.848 | 0.933 | 0.711 | 0.58 | 0.613 | 0.555 | 0.577 | 0.542 | 0.419 | 0.414 | 0.389 | 0.455 | 0.393 | 0.412 |
| NCI-H1915 | 0.28 | 0.298 | 0.269 | 0.275 | 0.337 | 1.06 | 0.931 | 0.965 | 0.902 | 0.737 | 0.419 | 0.506 | 0.459 | 0.404 | 0.296 | 0.355 | 0.508 | 0.455 | 0.425 | 0.42 |
| NCI-H1975 | 0.343 | 0.358 | 0.425 | 0.343 | 0.495 | 0.362 | 0.338 | 0.323 | 0.209 | 0.183 | 0.753 | 0.724 | 0.578 | 0.267 | 0.138 | 0.299 | 0.32 | 0.297 | 0.244 | 0.181 |
